Test results published in patent publication US20110277050A1, “SYSTEM AND METHODS TO CONTROL TRANSGENE EXPRESSION” (The Board of Trustees of the Leland Stanford Junior …, priority 2010, published 2011).

Legend:
Flies = Flies kept on food containing high doses of quinic acid; format: in vivo, Drosophila; details: 9 generations on food containing high doses of quinic acid
Method: (§1) Quinic acid feeding of flies: Quinic acid containing medium was made as follows: a few holes were made in standard fly medium with wooden sticks, and 0.3 ml of freshly made D-(−)-quinic acid (Sigma-Aldrich, 98%, Catalog #138622) solution dissolved in water was added per 10 ml of medium. Vials were allowed to air-dry overnight. […] For assaying the effect of quinic acid on developing animals, approximately 10 males and 15 females per vial of the genotype ET40-QF, QUAS-mtdT-3xHA (II); 82B^FRT tubP-QS (III) were allowed to lay eggs for 6 hours on quinic acid containing medium. Animals fed upon and developed in the quinic acid containing food. Adult flies were imaged within 3 days of eclosion. For assaying the effect of quinic acid feeding on adult flies, approximately 30 adult flies per vial of genotype ET40-QF, QUAS-mtdT-3xHA (II); 82B^FRT tubP-QS (III) were allowed to feed on quinic acid medium for the listed times in FIG. 3D. For feedings over multiple days, flies were transferred to fresh quinic acid containing food every two days.

[1] = tested on: QUAS-luc2 reporter (QF activation, QS repression) in human HeLa cells; assay: Dual luciferase reporter assay in transiently transfected human HeLa cells, QUAS-luc2 reporter (QF/QS); format: cell-based
Method: (§2) HeLa Cell Transfection: HeLa cells (gift of K. Wehner, Stanford University) were maintained in Dulbecco's Modified Eagle Medium (DMEM, Invitrogen, Catalog #10566), supplemented with 10% FBS and antibiotics (from 100× penicillin/streptomycin stock, Invitrogen, Catalog #15140) in a 37° C. air incubator with 5% CO2. At least 5 hours before transfection, cells were detached and dissociated from the plate using Triple-express (Invitrogen, Catalog #12605) and plated into 24-well plates at 7*10^4 cells in 0.5 ml medium with FBS, but without antibiotics. Cells were transiently transfected using Lipofectamine 2000 (Invitrogen, Catalog #11668-019), according to the manufacturer's instructions. Plasmid DNA for transfection was prepared as described in the S2 cell transfection protocol above. For each sample we used 0.25 μg DNA (total of 10 μl from 25 ng/μl stocks) including one or more of the following: 50 ng of reporter, 25 ng of a transcription factor plasmid and the amount or repressor plasmid that was adjusted according to the molarity of the corresponding transcription factor plasmid to get either equimolar, 3-fold or 5-fold higher molar concentration, as indicated.
Each sample also contained 5 ng of pGL4.75 (hRluc/CMV from Promega), which was used for normalization of the firefly luciferase signal for each sample (see below), and pBluescript to supplement the total DNA amount to 0.25 μg. The DNA was mixed in 50 μl of Opti-MEM (Invitrogen, Catalog #51985) and combined with another 50 μl of Opti-MEM containing 1 μl of Lipofectamine. The medium containing the transfection mix was replaced with DMEM containing FBS and antibiotics 22 h after transfection. Where needed, the medium contained quinic acid supplemented from 50× stocks that were made as described in the S2 cell transfection protocol above. 24 h after the medium was changed, the cells were lysed in 24-well plates and processed as described above in the S2 cell transfection protocol. All samples that were transfected with reporters had at least 100-fold higher signal than the background (lysates from pBluescript-only transfected cells). […] Plasmids used for transfection in HeLa cells were: pUAS-luc2, pQUAS-luc2, pCMV-QF, pCMV-QS, pCMV-GAL4, pCMV-GAL80, pGL4.75 (Promega), pBluescript. Higher QS:QF or GAL80:GAL4 molar ratios are required for effective suppression in HeLa cells compared with Drosophila S2 cells. This phenomenon could be due to codon choice and/or differential activity or stability of activators and repressors at different temperatures—25° C. for S2 and 37° C. for HeLa.

[2] = tested on: QS inhibition of ET40-QF driven QUAS-mtdT-HA expression; assay: Quinic acid feeding of flies: derepression of QS (fluorescence imaging of adult flies); format: in vivo, Drosophila
Method: as §1
Imaging of adult flies: Adult flies were imaged on a Qlmaging Retiga 2000R Cooled Monochrome Digital camera using a Discovery V8 Pentafluor System (Zeiss) with a DS RED filter cube.

[3] = tested on: QUAS-luc2 reporter (QF activation, QS repression) in Drosophila S2 cells; assay: Dual luciferase reporter assay in transiently transfected Drosophila S2 cells, QUAS-luc2 reporter (QF/QS); format: cell-based
Method: (§3) S2 Cell Transfection: S2 cells (gift of M. Simon, Stanford University) were maintained in Shields and Sang M3 insect medium (Sigma, Catalog #S8398), prepared according to the manufacturer's instructions and supplemented with 10% heat inactivated fetal bovine serum (FBS) and antibiotics (from 100× penicillin/streptomycin stock, Invitrogen, Catalog #15140). FBS was heat inactivated at 56° C. for 30 minutes. The cells were grown in an air incubator at 25° C. For transfection, 0.4 ml of complete M3 medium containing 5*10^5 Drosophila S2 cells were plated into individual wells of 24-well plates several hours before the transfection. The DNA for transfection was mini-prepped (QIAprep Miniprep kit, Qiagen, Catalog #27106), DNA concentrations were determined using the Nanoprop 1000 spectrophotometer (Thermo Scientific), diluted in 10 mM TRIS-HCl pH 7.5, 0.1 mM EDTA to 25 ng/μl, and filtered through a 13-mm 0.2 μm filter (Nalgene, Catalog #180-1320). For individual transfections, we used 0.2 μg of total DNA (total of 8 μl from 25 ng/μl stocks) including one or more of the following: 25 ng of reporter, 12.5 ng of a transcription factor plasmid and the amount or repressor plasmid that was adjusted according to the molarity of the corresponding transcription factor plasmid to get either equimolar, 3-fold or 5-fold higher molar concentration, as indicated. Each sample also contained 2.5 ng of pPAC5C-hRluc, which was used for normalization of the firefly luciferase signal for each sample (see below) and pBluescript to supplement the total DNA amount to 0.2 μg. The cells were transfected using Effectene (Qiagen, Catalog #301425) according to the manufacturer's protocol (for each sample we used: 59 μl EC buffer; 1.6 μl enhancer solution; 4 μl Effectene and 350 μl M3 medium). 12 h after the addition of transfection mixes to cells, quinic acid was added where indicated from 50× stocks. The starting quinic acid stock solution (250 mg/ml) was prepared from D-(−)-quinic acid (Sigma-Aldrich, 98%, Catalog #138622) in sterile Milli-Q water and neutralized with NaOH to pH˜7. All other 50× stocks were made from this stock by dilution in water. Cells were lysed 24 h after the addition of quinic acid (36 h since the start of transfection), by spinning the 24-well plates for 5′ in a table top centrifuge at ˜1000 g, removing the supernatant by aspiration and incubation with of 200 μl passive lysis buffer (from the Dual Luciferase Reporter Assay System by Promega, Catalog #E1910) with shaking at room temperature for ˜30 minutes. The lysates were transferred into 1.5 ml tubes and frozen at −80° C. The lysates were analyzed using the Dual Luciferase Reporter Assay System, according to the manufacturer's instructions, and the single tube Turner Biosystems luminometer, model 20/20n. The luminescence light signal for both firefly and Renilla luciferases was collected for 10 s. All samples that were transfected with reporters had at least 100-fold higher signal than the background (lysates from pBluescript-only transfected cells). For each sample “X”, the relative luciferase activity (RLA) was calculated according to the following formula: […] where n=number of QUAS-only samples; F=Firefly luciferase luminescence signal; R=Renilla luciferase luminescence signal. Each condition was executed at least in triplicate, the average and SEM were determined for each condition, and statistical significance was evaluated using Student's t-test. […]

[4] = tested on: UAS-luc2 reporter (GAL4 activation, GAL80 repression) in Drosophila S2 cells; assay: Dual luciferase reporter assay in transiently transfected Drosophila S2 cells, UAS-luc2 reporter (GAL4/GAL80); format: cell-based
Method: as §3

[5] = Stability of quinic acid in fly food, judged by derepression activity; format: physicochemical; details: food stored for at least a week at 18° C.
Method: as §1

[6] = tested on: UAS-luc2 reporter (GAL4 activation) in human HeLa cells; assay: Dual luciferase reporter assay in transiently transfected human HeLa cells, UAS-luc2 reporter (GAL4); format: cell-based
Method: as §2
Each sample also contained 5 ng of pGL4.75 (hRluc/CMV from Promega), which was used for normalization of the firefly luciferase signal for each sample (see below), and pBluescript to supplement the total DNA amount to 0.25 μg. […]

[7] = adult flies transferred to quinic acid-containing food

With `O=C(O)[C@]1(O)C[C@@H](O)[C@@H](O)[C@H](O)C1` [quinic acid, D-(−)-quinic acid] the abnormalities in flies (Flies) was “no noticeable abnormalities”, the “effect on QF-dependent transcription of QUAS” value [1] was “no effect” and the “suppression of QS in mammalian cells” value ([1]; also observed in COS cells) was “does not suppress QS”. For the same molecule, the “further suppression of QUAS activation in the presence of QF and 5xQS” value ([1]; two higher QA concentrations tested (250 μg/ml, 5 mg/ml)) was roughly 13 fold, the “derepression in flies fed for up to 10 days compared with 5 days” value ([2]; adult flies on quinic acid food) was “no more derepression” and the “time after which reversion of suppression could be seen” value [2, 7] was 6 h. For the same molecule, the “time of marked reversion of suppression” value [2, 7] was 24 h, the “time of saturation of reversion of suppression” value [2, 7] was no more than 5 days and the “reversion of QS inhibition of ET40-QF driven QUAS-mtdT-HA expression with increasing doses” value ([2]; quinic acid added to fly food on which flies developed) was “increasingly reverted”. The “suppression of QS to restore QF-based transcription” value [3] was “significantly suppressed QS”, the “effect on QF activation of QUAS” value ([3]; high concentration (5 mg/ml)) was “no effect” and the “re-activation of QUAS compared to the control sample with QUAS, QF and 5xQS” value ([3]; highest QA concentration tested (QA3=5 mg/ml), 24 h) was roughly 23 fold. For the same molecule, the “derepression of GAL4 (effect on GAL80 repression of GAL4)” value ([4]; high concentration (5 mg/ml)) was roughly 1.5 fold, the “effect on Gal4 activation of UAS” value ([4]; high concentration (5 mg/ml)) was “no effect” and the stability in food [5] was “appears to be stable”.

B1: GAL4: budding yeast transcription factor of the GAL4/UAS binary expression system (protein, UniProt P04386 1-881, looked up)
Regulatory protein GAL4: MKLLSSIEQACDICRLKKLKCSKEKPKCAKCLKNNWECRYSPKTKRSPLTRAHLTEVESRLERLEQLFLLIFPREDLDMILKMDSLQDIKALLTGLFVQDNVNKDAVTDRLASVETDMPLTLRQHRISATSSSEESSNKGQRQLTVSIDSAAHHDNSTIPLDFMPRDALHGFDWSEEDDMSDGLPFLKTDPNNNGFFGDGSLLCILRSIGFKPENYTNSNVNRLPTMITDRYTLASRSTTSRLLQSYLNNFHPYCPIVHSPTLMMLYNNQIEIASKDQWQILFNCILAIGAWCIEGESTDIDVFYYQNAKSHLTSKVFESGSIILVTALHLLSRYTQWRQKTNTSYNFHSFSIRMAISLGLNRDLPSSFSDSSILEQRRRIWWSVYSWEIQLSLLYGRSIQLSQNTISFPSSVDDVQRTTTGPTIYHGIIETARLLQVFTKIYELDKTVTAEKSPICAKKCLMICNEIEEVSRQAPKFLQMDISTTALTNLLKEHPWLSFTRFELKWKQLSLIIYVLRDFFTNFTQKKSQLEQDQNDHQSYEVKRCSIMLSDAAQRTVMSVSSYMDNHNVTPYFAWNCSYYLFNAVLVPIKTLLSNSKSNAENNETAQLLQQINTVLMLLKKLATFKIQTCEKYIQVLEEVCAPFLLSQCAIPLPHISYNNSNGSAIKNIVGSATIAQYPTLPEENVNNISVKYVSPGSVGPSPVPLKSGASFSDLVKLLSNRPPSRNSPVTIPRSTPSHRSVTPFLGQQQQLQSLVPLTPSALFGGANFNQSGNIADSSLSFTFTNSSNGPNLITTQTNSQALSQPIASSNVHDNFMNNEITASKIDDGNNSKPLSPGWTDQTAYNAFGITTGMFNTTTMDDVYNYLFDDEDTPPNPKKE
In the case of B1, the “GAL4 activation of QUAS, fold less than that of UAS” value ([3]; cross-activation) is reported as roughly 200 fold, the “induction of UAS” value [6] is reported as roughly 1000 fold and the “higher inducibility than QF/QUAS” value [4] is reported as roughly 1.6 fold. The “induction of luc2 expression from UAS-luc2” value [4] was ~5,300 fold.

B2: QF: transcriptional activator from the Neurospora crassa qa gene cluster, binds 16-base pair sequence (QUAS) (protein, UniProt P11638 1-816, looked up)
Transcription factor qa-1f: MPPKRKTLNAAAEANAHADGHADGNADGHVANTAASSNNARFADLTNIDTPGLGPTTTTLLVEPARSKRQRVSRACDQCRAAREKCDGIQPACFPCVSQGRSCTYQASPKKRGVQTGYIRTLELALAWMFENVARSEDALHNLLVRDAGQGSALLVGKDSPAAERLHARWATSRVNKSITRLLSGQAAQDPSEDGQSPSEDINVQDAGAKTSDFPHAPHLTFSAPKSSTAETRTLPGPVRPPISANTLENNLQPDGTGIGKLPPNHWRLLDIYFSYTHSWLPILEKKDMYQALYQYSEQGSLLPSANVESGVHAELWSALALASFQAAATAASSATGPASAAHGHDNAINPSPADISDTARKLIPLESGPFQVQHCRALLLLCLVSLGRDDWESAWLLVGFAVRVLLVVRTQLPPDDDRPRPRMRALLVACFIVDTIVSMRHNVPAHLKPDDIADLPLPEDGQDQWEPWTPCEGLGGEHTMLQMLRNPAYPLSTFNHLYGVTKLVALELLPRIRTSSQNAPLEFRSRLQQVIGHNSPFSVFVLSQDTASAFVPTAYLTRTVYLWAAAFSEPLNEHYSHLLIETLDQYQKRFGTYAIPPLIPSLLDSLLALKKQSHSSERHRRHLEELFPAYSSIWPRGGRHSNTGLQPIRQLELPPTATATASIMPHVMEQPLSTSINPVNDRFNGIPNPTPYNSDAALDAITQTNDYGSVNTHGILSTYPPPATHLNEASVALAPGGAPPRPPPPYVDSTTNHPPYHSNLVPMANFGYSTVDYDAMVDDLASIEYTDAVDVDPQFMTNLGFVPGCNFSDISTYEQ
In the case of B2, the “induction of expression from QUAS” value [1] is reported as roughly 24.000 fold, the “enhancement of luc2 expression from QUAS-luc2 compared with QUAS-luc2 alone” value [3] is reported as roughly 3.300 fold and the “QF activation of UAS, fold less than that of QUAS” value ([4]; cross-activation) is reported as ~1,500 fold.
